pIC50: −log10 of the molar value. Several values for one entry are separate records, joined by “and”; a condition that tells them apart may be missing. Equal entries are not always repeated.
Experiments:
[1] = system: C57BL/6 mice; assay: Delay fear conditioning, microinjection to hippocampal CA1; format: in vivo, mouse
Procedure: In order to evaluate the efficacy of some of the leading QR2is in vivo, we carried out double-blind experiments using 2 different modalities (Supplemental Methods), measuring memory that is dependent on different brain areas. First, cortical memory was tested using incidental novel taste learning (see Methods), in which an unfamiliar, but palatable and safe, taste is given for the first time, and the memory for this newly learned taste is then assessed 2 days later. This is done by measuring the volume of the taste consumed upon subsequent exposure to it ([32]) (Figure 4A). […] Next, hippocampal-dependent learning was evaluated using delay fear conditioning (DFC; see Methods) ([33]). Mice were cannulated to the CA1 region of the hippocampus and were microinjected with YB-537 (1 μL of 5 μM, Figure 4, D and H) or vehicle. […] In order to evaluate any possible effect of acute QR2i microinjection on metabolic stress in the mouse brain, ISR activation was measured by quantifying total and phosphorylated eukaryotic initiation factor 2 α (eIF2α) levels (Supplemental Figure 3A) and lipid peroxidation product, 4-hydroxynonenal (4-HNE; Supplemental Figure 3B), by immunoblot 3 hours after the injection.
DFC was done as previously described ([7]). Briefly, mice were given 2 minutes to explore the conditioning chambers, during which baseline freezing was measured. Then, a 20 second, 4 kHz, 80 dB tone was given, coterminating with the start of a 2 second, 0.5 mA foot-shock. This was repeated twice more in 1 minute intervals. Following the third and last bout, 1 minute was given before the animals were removed from the chambers. The next day, the animals were returned to the room under the same conditions and were placed back into the chambers, and freezing to the context was measured over the course of 5 minutes. The next day, the mice were brought to unfamiliar conditioning rooms and chambers. In this unfamiliar context, the protocol from the first day was repeated, except without the foot shocks. Freezing for the cue was recorded, starting from the sounding of the first tone. All measurements were taken with a Sentec stc-tb33usb-at camera, and analysis was done with Freeze Frame software (Actimetrics). […]
Mice were anesthetized under 2% isoflurane, using an induction box (HME109, Highland Medical Equipment). They were placed in a stereotaxic device (Kopf Stereotaxic Alignment System, model 1900) under continuous 1% isoflurane anesthesia. Guide cannulas were implanted bilaterally to CA1 (from bregma: −1.9 mm AP, ±1.4 mm, −1.6 mm DV), cemented to the skull and fitted with 28- gauge dummy cannulas e xt e ndi ng 0.2 mm beyond the tip of the 1.2 mm guide cannulas. The mice were allowed at least 7 days of r ecover y before e xpe r im e nt at ion. The QR2 inhibitor YB-537 was dissolved in saline (0.9%). A total of 1μL of 5μM of YB-537 or vehicle was infused bilaterally to CA1, via a 28- gauge infusion cannula projecting 0.4 mm (drug delivery depth bregma: […]) beyond the guide cannula, connected by polyethylene tubing to a 10μL s yr i nge (Hamilton) ove r the course of 1m i n. The injection cannula was […]
kept for 60s inside the guide cannula in order prevent osmotic seepage of the doses upward through the cannula tract. Twenty minutes following the injection, animals underwent delay fear conditioning.
Following experimentation, animals were killed, brains were sliced in coronal sections, and cannula implantation was validated by imaging.
Incidental Tast e Learning […]
neophobia is highly conserved across species, as it is the fi rst line of defense against potentially poisonous, newly discovered foodstuffs.
However, once a memory for the taste is formed and no associated ill effect is learned, the taste becomes familiar and the animal consumes it more freely, especially if it is a pleasant, palatable taste. Thus, the stronger the memory for the safe, palatable taste, the more likely the animal will consume it(32, 56). […]

[2] = molecular target: T1, QR1 (Homo sapiens, UniProt P15559); assay: QR1 selectivity assay, fluorescence; format: biochemical; conditions: Figure 2D; readout not stated
T1 construct: purchased Sigma-Aldrich
Description: A drug discovery campaign strategy was initiated to screen compounds for QR2-specific, cell-free inhibition and in vitro activity, followed by SAR optimization (Figure 2A) to achieve highly specific and potent QR2 inhibitor synthesis. In order to establish a varied and chemically amenable starting point, we developed a high-throughput QR2 assay (Supplemental Methods) that we screened against a library with approximately 200,000 compounds. […] Compounds that replicated the initial hit result were then assayed similarly against QR1 to evaluate compound specificity (Figure 2B). From the HTS, a chemically tractable and attractive series of compounds containing a sulfone flanked by an amine and a heterocycle were identified and selected for SAR development (Figure 2C, Supplemental Methods, Supplemental Table 1, and Supplemental Table 2). […]
menadione and 10 nM of QR2) were dispensed in 1536-well black Nunc plates (Thermo-Fisher) using aMultidrop™ Combi Reagent Dispenser (Thermo-Fisher) and pre-incubated with compounds for 10min. BNAH (200µM) was t hen added (3 µL) to the reaction using a BioNex Solutions BNX1536plate washer and the plates were incubated for another 10 min. Fluorescence intensity was followed in a PHERAstar FS multi-mode plate reader (BMG Labtech) us i ng an optic module with excitation at 360 nm and emission at 470 nm. The initial HTS includedapproximately 200,000 compounds at a single concentrationof 5 µM. The chemical libraries used were Selleck Chemicals Bioactives, the Drug-like set from Enamine, HitFinder collection from Maybridge, Spectrum Collection from Microsource, Lopa c from Sigma -Aldrich and the diversity set s from Chem Div and Che m Br idge .
Initial ‘‘hit’’ compounds were defined as causing >30% reduction of enzyme activity. Compounds suspected to be fluorescent were re -assayed in an absorbance assay at 350 nm using the same reaction but in a higher volume (100 µL), in a transparent plate (Greiner Bio- One). ‘‘Hit’’ compounds resulting from both the fluorescence and absorbance assay wer e t ested in a concentration- response, and IC50 values were de t er mi ne d. In parallel, the same

[3] = Body weight during chronic ingestion; format: in vivo, mouse; conditions: for average weight: over 25 days of consumption; for Sup. Fig. 5-2A, body weight: in g (unit assumed)
Procedure: Supplementary Figure 6. Chronic Drinking of 50 mg/kg YB -537 for of 1 Month Causes no Changes
in General Mouse Physiology or Behavior but Improves Nesting Behavior Over Time. […]

[4] = 5 μM to CA1, in % (unit assumed)

T1 sequence (P15559 whole entry): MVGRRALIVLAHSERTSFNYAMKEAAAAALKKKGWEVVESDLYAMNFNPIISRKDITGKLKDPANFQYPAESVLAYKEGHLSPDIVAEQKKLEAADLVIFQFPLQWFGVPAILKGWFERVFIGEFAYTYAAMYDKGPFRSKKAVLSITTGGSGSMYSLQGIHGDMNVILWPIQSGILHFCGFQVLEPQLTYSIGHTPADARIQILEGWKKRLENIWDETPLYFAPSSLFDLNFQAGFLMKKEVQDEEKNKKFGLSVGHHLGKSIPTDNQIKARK

Cc1ccc(-c2cn3cccc(C)c3n2)cc1S(=O)(=O)N1CCNCC1 [YB-537]
inter-trial learning during conditioning ([1]; 5 μM to CA1, n=6): normal inter-trial learning | freezing during conditioning (individual mice) ([1]; 5 μM to CA1, Baseline, in % (unit assumed)): 2.45 and 0.22 and 3.23 and 4.78 and 9.01 and 1.89 | freezing during conditioning (individual mice) ([1]; 5 μM to CA1, CS/US 1, in % (unit assumed)): 13.08 and 8.81 and 18.16 and 10.01 and 26.70 and 2.54 | freezing during conditioning (individual mice) ([1]; 5 μM to CA1, CS/US 2, in % (unit assumed)): 20.03 and 15.78 and 28.12 and 17.97 and 27.02 and 2.19 | freezing during conditioning (individual mice) ([1]; 5 μM to CA1, CS/US 3, in % (unit assumed)): 24.88 and 20.00 and 35.58 and 21.40 and 33.02 and 2.33 | freezing in response to the context (individual mice) [1, 4]: 59.92 and 49.69 and 57.37 and 25.70 and 41.84 and 33.92 | freezing in response to the cue (individual mice) [1, 4]: 51.89 and 48.39 and 35.02 and 23.60 and 5.68 and 24.28 | pIC50 [2]: < 5.00 | average weight ([3]; 5xFAD females): 22.76 ± 0.192 g | average weight ([3]; 5xFAD males): 32.56 ± 0.279 g | Sup. Fig. 5-2A, body weight ([3]; Female, Day 1): 23 and 22 and 24 and 25 and 21 and 20 | Sup. Fig. 5-2A, body weight ([3]; Female, Day 3): 25 and 20 and 24 and 23 | Sup. Fig. 5-2A, body weight ([3]; Female, Day 5): 25 and 21 and 27 and 24 and 20 | Sup. Fig. 5-2A, body weight ([3]; Female, Day 9): 24 and 20 and 25 and 27 and 22 | Sup. Fig. 5-2A, body weight ([3]; Female, Day 11): 23 and 21 and 25 and 26 and 22 | Sup. Fig. 5-2A, body weight ([3]; Female, Day 15): 25 and 22 and 26 and 23 and 24 | Sup. Fig. 5-2A, body weight ([3]; Female, Day 16): 23 and 20 and 24 | Sup. Fig. 5-2A, body weight ([3]; Female, Day 18): 23 and 21 and 24 and 22 and 20 | Sup. Fig. 5-2A, body weight ([3]; Female, Day 25): 25 and 22 and 23 and 21 | Sup. Fig. 5-2A, body weight ([3]; Male, Day 1): 34 and 42 and 33 and 36 and 31 and 28 | Sup. Fig. 5-2A, body weight ([3]; Male, Day 3): 33 and 41 and 32 and 35 and 30 and 26 | Sup. Fig. 5-2A, body weight ([3]; Male, Day 5): 33 and 40 and 32 and 35 and 30 and 26 and 34 and 31 | Sup. Fig. 5-2A, body weight ([3]; Male, Day 9): 31 and 39 and 32 and 33 and 30 and 27 and 35 | Sup. Fig. 5-2A, body weight ([3]; Male, Day 11): 31 and 32 and 34 and 30 and 28 and 35 | Sup. Fig. 5-2A, body weight ([3]; Male, Day 15): 32 and 39 and 34 and 31 and 28 and 36 | Sup. Fig. 5-2A, body weight ([3]; Male, Day 18): 32 and 37 and 29 and 30 and 33 and 27 and 35 | Sup. Fig. 5-2A, body weight ([3]; Male, Day 25): 32 and 39 and 31 and 34 and 27

Cc1ccc(-c2cn3cccc(C)c3n2)cc1S(=O)(=O)N1CCC(C)CC1 [YB-800]
pIC50 [2]: < 5.00

From publication PMC10541198, “Specific quinone reductase 2 inhibitors reduce metabolic burden and reverse Alzheimer’s disease phenotype in mice” (The Journal of Clinical Investigation, 2023)
